Measurements as given in US20210122771A1, “NEW MOLECULAR TWEEZERS AGAINST NEUROLOGICAL DISORDERS AND VIRAL INFECTIONS” (The Regents of the University of California, priority 2018, published 2021).

Key:
KAA = format: binding; details: fluorometric titration in aqueous buffer at neutral pH; read-out: Dissociation constant Kd, KAA
RGD = format: binding; details: fluorometric titration in aqueous buffer at neutral pH; read-out: Dissociation constant Kd, RGD
[1] = system: differentiated rat pheochromocytoma (PC-12) cells; assay: Self-toxicity in differentiated PC-12 cells (MTT and/or LDH); details: MTT and/or LDH assays, highest concentration tested 100 μM
Protocol: (§1) The highest concentration tested was 100 μM. Non-toxic compounds then were tested for their ability to inhibit the toxicity of 10 μM Aβ42 in the same assay. The parent compound 1 was used as a control in both cases.

[2] = PK screening in mice, three routes, two time points; details: for Blood Concentration, 40 min / Brain Concentration, 40 min / Blood Concentration, 4 h / Brain Concentration, 4 h: analyte: administered compound for 13 and 14, compound 1 in all other cases
Protocol: Each compound was administered to the mice at 2 mg/kg intravenously (I.V.), 2 mg/kg subcutaneously (S.C.), or 10 mg/kg orally (P.O.).

Full 24-h PK profile = format: in vivo, mice; set-up: Brain AUC: unit not given here
Protocol: Based on the 2-time-point screen results, a full 24-h PK profile has been obtained for compounds 13 and 14. In these experiments, the blood and brain levels were measured at 7 time points—0.3, 0.6, 1, 2, 4, 8, and 24 h. Data for 1 are given for reference.

Aβ42-induced toxicity = assay: Inhibition of Aβ42 toxicity in differentiated PC-12 cells (MTT/LDH); format: cell-based, rat; details: 10 μM Aβ42, differentiated PC-12 cells
Protocol: as §1

[3] = Incubation with mouse liver microsomes, LC-MS/MS; format: in vitro ADME; details: incubation 1 h, LC-MS/MS every 15 min
[4] = Incubation with simulated gastric fluid, LC-MS/MS; details: incubation 1 h, LC-MS/MS every 15 min
[5] = Incubation with mouse plasma, LC-MS/MS; details: incubation 1 h, LC-MS/MS every 15 min
[6] = I.V., 24-h profile, 7 time points
[7] = P.O., 24-h profile, 7 time points
[8] = S.C., 24-h profile, 7 time points

Work on `C#CCCOP(=O)(O)Oc1c2c(c(OP(=O)(O)O)c3c1C1CC3c3cc4c(cc31)C1CC4c3ccccc31)C1CC2c2cc3c(cc21)C1CC3c2ccccc21` [Compound 12] yielded a Kd (KAA) of 20 µM and a Kd (RGD) of 60 µM.

In the case of `O=P([O-])(O)Oc1c2c(c(O)c3c1C1CC3c3cc4c(cc31)C1CC4c3ccccc31)C1CC2c2cc3c(cc21)C1CC3c2ccccc21.[Na+]` [Compound 13], the Self-toxicity [1] is reported as “Non-toxic”, the “Blood Concentration, 40 min” value ([2]; mice, 2 mg/kg I.V., 40 min) is reported as 55 ng/mL and the “Brain Concentration, 40 min” value ([2]; mice, 2 mg/kg I.V., 40 min) is reported as 3.58 ng/g. The “BBB penetration, 40 min” value ([2]; mice, 2 mg/kg I.V., 40 min, percent ratio between brain and blood concentration) was 6.5%, the “Blood Concentration, 4 h” value ([2]; mice, 2 mg/kg I.V., 4 h) was 53 ng/mL and the “Brain Concentration, 4 h” value ([2]; mice, 2 mg/kg I.V., 4 h) was 1.28 ng/g. For the same compound, the “BBB penetration, 4 h” value ([2]; mice, 2 mg/kg I.V., 4 h, percent ratio between brain and blood concentration) was 2.4%, the “Blood Concentration, 40 min” value ([2]; mice, 2 mg/kg S.C., 40 min) was 98 ng/mL and the “Brain Concentration, 40 min” value ([2]; mice, 2 mg/kg S.C., 40 min) was 1.19 ng/g. For the same compound, the “BBB penetration, 40 min” value ([2]; mice, 2 mg/kg S.C., 40 min, percent ratio between brain and blood concentration) was 1.2%, the “Bioavailability, 40 min” value ([2]; mice, 2 mg/kg S.C., 40 min, percent ratio of the I.V. blood concentration) was 178.2% and the “Blood Concentration, 4 h” value ([2]; mice, 2 mg/kg S.C., 4 h) was 50 ng/mL. The “Brain Concentration, 4 h” value ([2]; mice, 2 mg/kg S.C., 4 h) was 1.69 ng/g, the “BBB penetration, 4 h” value ([2]; mice, 2 mg/kg S.C., 4 h, percent ratio between brain and blood concentration) was 3.4% and the “Bioavailability, 4 h” value ([2]; mice, 2 mg/kg S.C., 4 h, percent ratio of the I.V. blood concentration) was 94.3%. For the same compound, the “Blood Concentration, 40 min” value ([2]; mice, 10 mg/kg P.O., 40 min) was 0.0 ng/mL, the “Brain Concentration, 40 min” value ([2]; mice, 10 mg/kg P.O., 40 min) was 1.79 ng/g and the “BBB penetration, 40 mm” value ([2]; mice, 10 mg/kg P.O., 40 min, percent ratio between brain and blood concentration) was 0.0%. The “Bioavailability, 40 min” value ([2]; mice, 10 mg/kg P.O., 40 min, percent ratio of the I.V. blood concentration) was 0.0%, the “Blood Concentration, 4 h” value ([2]; mice, 10 mg/kg P.O., 4 h) was 0.3 ng/mL and the “Brain Concentration, 4 h” value ([2]; mice, 10 mg/kg P.O., 4 h) was 0.26 ng/g. The “BBB penetration, 4 h” value ([2]; mice, 10 mg/kg P.O., 4 h, percent ratio between brain and blood concentration) was 100%, the “Bioavailability, 4 h” value ([2]; mice, 10 mg/kg P.O., 4 h, percent ratio of the I.V. blood concentration) was 0.5% and the LogBB (Full 24-h PK profile; I.V., 24-h profile) was −2.06. The “Blood T1/2” value (Full 24-h PK profile; [6]) was 1.2 h, the “Brain AUC” value (Full 24-h PK profile; [6]) was 3.71 and the “Brain T1/2” value (Full 24-h PK profile; [6]) was 1.5 h. The “Blood AUC” value (Full 24-h PK profile; I.V., 24-h profile, 7 time points, in ng·h/mL) was 423, the “Blood Bioavailability” value (Full 24-h PK profile; P.O., 24-h profile) was 21.6% and the LogBB (Full 24-h PK profile; P.O., 24-h profile) was −1.84. For the same compound, the “Blood T1/2” value (Full 24-h PK profile; [7]) was 16 h, the “Brain AUC” value (Full 24-h PK profile; [7]) was 1.33 and the “Brain T1/2” value (Full 24-h PK profile; [7]) was 3.1 h. The “Blood AUC” value (Full 24-h PK profile; P.O., 24-h profile, 7 time points, in ng·h/mL) was 91.2, the “Blood Bioavailability” value (Full 24-h PK profile; S.C., 24-h profile) was 246.7% and the LogBB (Full 24-h PK profile; S.C., 24-h profile) was 3.31. The “Blood T1/2” value (Full 24-h PK profile; [8]) was 11.1 h, the “Brain T1/2” value (Full 24-h PK profile; [8]) was 1.1 h and the “Blood AUC” value (Full 24-h PK profile; S.C., 24-h profile, 7 time points, in ng·h/mL) was 1043. For the same compound, the “BBB penetration relative to compound 1” value (Full 24-h PK profile; full 24-h PK profile) was “improved”, the “protective effect against Aβ42-induced toxicity compared to 1” value (Aβ42-induced toxicity) was “higher protective effect” and the IC50 (Aβ42-induced toxicity; LDH assay, read-out: Inhibition of Aβ42 toxicity, IC50 (LDH)) was 16 µM.

In the case of `COc1c2c(c(OP(=O)([O-])O)c3c1C1CC3c3cc4c(cc31)C1CC4c3ccccc31)C1CC2c2cc3c(cc21)C1CC3c2ccccc21.[Na+]` [Compound 14], the “Bioavailability, 40 min” value ([2]; mouse, in vivo, 2 mg/kg) is reported as 281.1%, the “Bioavailability, 4 h” value ([2]; mouse, in vivo, 2 mg/kg) is reported as 291.2% and the “Bioavailability, 40 min” value ([2]; mouse, in vivo, 10 mg/kg) is reported as 3.9%. The “Bioavailability, 4 h” value ([2]; mouse, in vivo, 10 mg/kg) was 20.3%, the “BBB penetration when administered I.V. (compared to 1)” value ([2]; mouse, in vivo, iv) was “substantially increased” and the “BBB penetration, 40 min” value ([2]; mouse, in vivo, iv, 2 mg/kg) was 10.0%. The “BBB penetration, 4 h” value ([2]; mouse, in vivo, iv, 2 mg/kg) was 65.9%, the “BBB penetration, 40 mm” value ([2]; mouse, in vivo, po, 10 mg/kg) was 6.1% and the “BBB penetration, 4 h” value ([2]; mouse, in vivo, po, 10 mg/kg) was 2.6%. For the same compound, the “BBB penetration, 40 min” value ([2]; mouse, in vivo, sc, 2 mg/kg) was 0.1%, the “BBB penetration, 4 h” value ([2]; mouse, in vivo, sc, 2 mg/kg) was 0.4% and the “BBB penetration relative to compound 1” value (Full 24-h PK profile; mouse, in vivo) was “improved”. The “Blood AUC” value (Full 24-h PK profile; mouse, in vivo, iv) was 1880, the “Blood T1/2” value (Full 24-h PK profile; mouse, in vivo, iv) was 1.7 h and the “Brain AUC” value (Full 24-h PK profile; mouse, in vivo, iv) was 73.2. The “Brain T1/2” value (Full 24-h PK profile; mouse, in vivo, iv) was 0.8 h, the LogBB (Full 24-h PK profile; mouse, in vivo, iv) was −1.41 and the “Blood AUC” value (Full 24-h PK profile; mouse, in vivo, po) was 16.1. The “Blood Bioavailability” value (Full 24-h PK profile; mouse, in vivo, po) was 0.9%, the “Blood T1/2” value (Full 24-h PK profile; mouse, in vivo, po) was 4.4 h and the “Brain AUC” value (Full 24-h PK profile; mouse, in vivo, po) was 13.7. The “Brain T1/2” value (Full 24-h PK profile; mouse, in vivo, po) was 6.5 h, the LogBB (Full 24-h PK profile; mouse, in vivo, po) was −0.07 and the “oral bioavailability relative to compound 1” value (Full 24-h PK profile; mouse, in vivo, po) was “improved”. For the same compound, the “Blood AUC” value (Full 24-h PK profile; mouse, in vivo, sc) was 1147, the “Blood Bioavailability” value (Full 24-h PK profile; mouse, in vivo, sc) was 61.0% and the “Blood T1/2” value (Full 24-h PK profile; mouse, in vivo, sc) was 14.8 h. The “Brain AUC” value (Full 24-h PK profile; mouse, in vivo, sc) was 4.4 and the LogBB (Full 24-h PK profile; mouse, in vivo, sc) was 0.

With `O=C(O)Cc1ccccc1Nc1c(Cl)cccc1Cl` [diclofenac] the “hydrolysis in mouse liver microsomes” value [3] was “hydrolyzed quantitatively”, the “hydrolysis in simulated gastric fluid” value [4] was “hydrolyzed quantitatively” and the “hydrolysis in mouse plasma” value [5] was “hydrolyzed quantitatively”.
